The test system of test [1] is adult mongrel dogs. Briefly: Renal vasodilating activity in anesthetized dogs. The format is in vivo, dog (adult mongrel). The following applies: Canis lupus familiaris, relative to controls; for change in vivo at 0.34 mg/kg: 0.34 mg/kg intravenous; for change in vivo at 6.2 mg/kg: 6.2 mg/kg intravenous; for change in vivo at 1.2 mg/kg: 1.2 mg/kg intravenous. How it is done:
Goldberg et al, J. Pharmacol. Exp. Ther., 163, 188 (1968), performed an investigation of the structural requirements for dopamine-like renal vasodilation of phenethylamines and apmorphine. The following procedure is a variation of the assay described in that report.
Adult mongrel dogs were anesthetized and surgically prepared for electromagnetic measurement of renal artery blood flow. A carotid artery was cannulated for measuring arterial blood pressure, and drugs were administered intravenously or intraarterially (via the renal artery). Heart rate was monitored with a cardiotachometer. Renal vascular resistance was calculated as the ratio of mean arterial blood pressure/renal artery blood flow. Dopamine was infused intravenously at […] for ten minutes (at an infusion rate of about 1 ml/min) to determine responsiveness of each dog to renal dopamine receptor stimulation. Cumulative dose-response data were obtained by infusing a compound of this invention at progressively increasing (usually three-fold) infusion rates, esch dose being infused for five minutes. The maximum percent increase from pre-drug control in renal artery blood flow (or a decrease in renal vascular resistance) was determined for each infusion dose.
RBF values are percent increase in renal blood flow. RVR values are percent increase in renal vascular resistance. MABP and HR are increases in mean arterial blood pressure and heart rate, respectively, relative to controls.

For test [2], the system named is adult mongrel dogs. Nature of the test: Acute in vivo cardiotonic activity in anesthetized dogs. The note with it: Canis lupus familiaris, relative to controls; for change in vivo at 0.375 mg/kg: 0.375 mg/kg intravenous; for change in vivo at 1.875 mg/kg: 1.875 mg/kg intravenous; for change in vivo at 0.875 mg/kg: 0.875 mg/kg intravenous. Set-up: species or system dog (adult mongrel). How it is done:
The acute in vivo cardiotonic activity of compounds prepared according to the present invention was determined according to a modification of the procedure described by Alousi et al., Circ. Res., 45, 666 (1979).
In particular, adult mongrel dogs were anesthetized with sodium pentobarbital and were artificially respired. Arterial pressure was monitored via a femoral artery, and the pulse pressure was used to trigger a cardiotachometer for heart rate. Left ventricular pressure was determined with a Millar catheter, and dP/dt (the change in ventricular pressure with time) was derived. Cardiac output was determined by measuring ascending aortic blood flow with an electromagnetic flow probe, and myocardial contractile force was measured with a Walton Brodie strain gauge sutured to the right ventricle. Lead II EKG was also recorded.
A standard dose (10 μ/kg/min) of dopamine was administered to assess myocardial responsiveness.
Compounds of the invention were administered by intravenous infusion or bolus oral administration, and the effects on cardiovascular parameters were determined.
Dose related effects on the test compound on blood pressure (BP), heart rate (HR), maximum change in left ventricular pressure with time (dP/dt max), % change in cardiac force (CF) and the increase in mean arterial blood pressure relative to controls (MABP) were compared to pretreatment control values, expressed as a % change and rated for activity. Statistical evaluations were made using the appropriate parametric test against controls.

The mark [3] stands for this setting: read-out: HR, percent change in heart rate.
The mark [4] stands for this setting: read-out: MABP, mean arterial blood pressure.
Where [5] appears, read: read-out: RBF, renal blood flow.
Setting [6] is: read-out: RVR, renal vascular resistance.
The mark [7] stands for this setting: read-out: CF, percent change in cardiac force.
Setting [8] is: read-out: dP/dt, maximum change left ventricular pressure with time.

Read-outs that look alike come from different tables or passages of the source.

On to `CCOc1cc2c(C)nc(O)c([N+](=O)[O-])c2cc1OCC` [BK], for which the change in vivo at 0.34 mg/kg in the test on adult mongrel dogs [1] (setting [3]) was 3%; in the test with adult mongrel dogs [1] (setting [4]) it was -21%; with adult mongrel dogs [1] (setting [5]), 14%; in the test on adult mongrel dogs [1] (setting [6]), -30%. For the same compound, the change in vivo at 0.375 mg/kg is 62% in the test with adult mongrel dogs [2] (setting [7]), 11% in the test with adult mongrel dogs [2] (setting [3]), -2% in the test with adult mongrel dogs [2] (setting [4]) and 22% in the test on adult mongrel dogs [2] (setting [8]).

Regarding `Cc1nc(O)c([N+](=O)[O-])c2cc3c(cc12)OCO3` [Compound BB], the change in vivo at 6.2 mg/kg is 90% with adult mongrel dogs [1] (setting [3]), -16% in the test with adult mongrel dogs [1] (setting [4]), 19% with adult mongrel dogs [1] (setting [5]) and -30% in the test on adult mongrel dogs [1] (setting [6]). Further, the change in vivo at 1.875 mg/kg was 28% with adult mongrel dogs [2] (setting [7]), -17% with adult mongrel dogs [2] (setting [3]), -8% in the test with adult mongrel dogs [2] (setting [4]) and -1% in the test on adult mongrel dogs [2] (setting [8]).

As for `COc1cc2c([N+](=O)[O-])c(O)nc(C)c2c(OC)c1OC` [BE], the change in vivo at 1.2 mg/kg was 32% with adult mongrel dogs [1] (setting [3]), -26% in the test on adult mongrel dogs [1] (setting [4]), 60% in the test on adult mongrel dogs [1] (setting [5]) and -52% in the test on adult mongrel dogs [1] (setting [6]). Besides, the change in vivo at 0.875 mg/kg in the test on adult mongrel dogs [2] (setting [7]) is 84%; with adult mongrel dogs [2] (setting [3]), 18%; in the test on adult mongrel dogs [2] (setting [4]), -22%; with adult mongrel dogs [2] (setting [8]) it was 38%.

Take `O=[N+]([O-])c1c(O)ncc2cc3c(cc12)OCO3` [Compound BC]: the change in vivo at 1.2 mg/kg was -6% in the test on adult mongrel dogs [1] (setting [3]), -14% in the test on adult mongrel dogs [1] (setting [4]), 20% in the test on adult mongrel dogs [1] (setting [5]) and -28% in the test with adult mongrel dogs [1] (setting [6]). In addition, the change in vivo at 1.875 mg/kg in the test on adult mongrel dogs [2] (setting [7]) was 16%; in the test on adult mongrel dogs [2] (setting [3]) it was 0%; in the test on adult mongrel dogs [2] (setting [4]), -7.5%; in the test on adult mongrel dogs [2] (setting [8]), 22%.

The values above are taken from patent US4714705A, “4-nitrogen substituted isoquinolinol compounds having cardiotonic, phosphodiesterase fraction III inhibiting properties and/or renal vasodilating properties” (Ortho Pharmaceutical Corporation, priority 1986, dated 1987).
